Measurements published in US7989589B2, “Compstatin analogs with improved activity” (The Trustees Of The University Of Pennsylvania, priority 2002, dated 2011).

Columns and labels:
[1] = tested on: activation of the complement system by immunocomplexes (C3 fixation); assay: Complement inhibition assay: inhibition of C3 fixation (C3b/iC3b deposition) to ovalbumin-anti-ovalbumin complexes in normal human plasma; format: biochemical; details: complement-inhibiting activity
Description: Complement activation inhibition was assessed by measuring the inhibition of C3 fixation to ovalbumin—anti-ovalbumin complexes in normal human plasma. Microtiter wells were coated with 50 μl of ovalbumin (10 mg/ml) for 2 hr at 25° C. (overnight at 4° C.). The wells were saturated with 200 μl of 10 mg/ml BSA for 1 hr at 25° C. and then a rabbit anti-ovalbumin antibody was added to form an immunocomplex by which complement can be activated. Thirty microliters of peptides at various concentrations were added directly to each well followed by 30 μl of a 1:80 dilution of human plasma. After 30 min incubation, bound C3b/iC3b was detected using a goat anti-human C3 BRP-conjugated antibody. Color was developed by adding ABTS peroxidase substrate and optical density measured at 405 nm. The concentration of the peptide causing 50% inhibition of C3b/iC3b deposition was taken as the IC50 and used to compare the activities of various peptides.

[2] = tested on: porcine-to-human xenograft; details: porcine-to-human xenograft perfused with human blood; cited from earlier work
complement activation [3] = details: cardio-pulmonary bypass, plasmapheresis, dialysis models; cited from earlier work
[4] = tested on: complement activation in human serum; details: cited from earlier work
[5] = tested on: heparin/protamine-induced complement activation; details: primates; cited from earlier work
[6] = tested on: alternative pathway-mediated erythrocyte lysis; details: cited from earlier work
complement activation [7] = details: in vivo animal models; cited from earlier work

In the case of “Ac-ICVWQDWGAHRCdT-COOH [Ac- 4W, 9A13dT —OH]”, the “activity compared with another peptide (in words)” value [1] is reported as “activity equal to that of peptide SEQ ID NO:5”.
For `CC[C@H](C)[C@H](N)C(=O)N[C@H]1CSSC[C@@H](C(=O)N[C@H](C(N)=O)[C@@H](C)O)NC(=O)[C@H](CCCN=C(N)N)NC(=O)[C@H](Cc2cnc[nH]2)NC(=O)[C@H](Cc2cnc[nH]2)NC(=O)CNC(=O)[C@H](Cc2c[nH]c3ccccc23)NC(=O)[C@H](CC(=O)O)NC(=O)[C@H](CCC(N)=O)NC(=O)[C@H](C(C)C)NC(=O)[C@H](C(C)C)NC1=O` [Compstatin], the lifetime of xenograft [2] is given as “prolong the lifetime of a porcine-to-human xenograft perfused with human blood”, the “inhibition of complement activation in extra-corporeal circuit models” value (complement activation [3]) is given as “inhibit complement activation in models of cardio-pulmonary bypass, plasmapheresis, and dialysis extra-corporeal circuits” and the “inhibition of complement activation in human serum” value [4] is given as “inhibit complement activation in human serum”. For the same molecule, the “inhibition of heparin/protamine-induced complement activation” value [5] was “inhibit heparin/protamine-induced complement activation in primates without significant side effects” and the IC50 [6] was 12 µM.
In the case of “sCR1: recombinant form of complement receptor 1 known as soluble complement receptor 1”, the “suppression of complement activation” value (complement activation [7]) is listed as “suppress complement activation in in vivo animal models”.
